Reference: article PMC12645583 (British journal of haematology, 2025)

What was measured:
IRAK1 = IRAK1 (Homo sapiens, UniProt P51617); assay: KINOMEscan kinase profiling, % inhibition at […]; format: binding
BTK = BTK (Homo sapiens, UniProt Q06187); assay: SelectScreen Z-Lyte enzymatic kinase assay at ATP Km app; format: biochemical
HCK = HCK (Homo sapiens, UniProt P08631); assay: as above; format: biochemical
Sequence of HCK (P08631 2-526): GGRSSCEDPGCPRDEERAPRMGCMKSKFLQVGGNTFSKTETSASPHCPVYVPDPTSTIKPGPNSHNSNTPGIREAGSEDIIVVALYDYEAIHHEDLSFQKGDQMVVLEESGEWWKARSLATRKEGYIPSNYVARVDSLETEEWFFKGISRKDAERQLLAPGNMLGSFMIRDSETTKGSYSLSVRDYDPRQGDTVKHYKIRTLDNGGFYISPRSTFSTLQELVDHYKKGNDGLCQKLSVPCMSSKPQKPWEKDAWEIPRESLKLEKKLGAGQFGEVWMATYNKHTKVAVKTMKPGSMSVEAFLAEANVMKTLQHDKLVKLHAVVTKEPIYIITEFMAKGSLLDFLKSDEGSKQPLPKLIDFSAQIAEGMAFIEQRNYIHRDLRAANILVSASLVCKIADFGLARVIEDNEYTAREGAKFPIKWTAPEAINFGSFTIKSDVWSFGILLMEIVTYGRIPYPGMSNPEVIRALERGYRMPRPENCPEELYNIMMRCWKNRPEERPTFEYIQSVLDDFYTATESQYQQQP

Sequence of IRAK1 (P51617 whole entry): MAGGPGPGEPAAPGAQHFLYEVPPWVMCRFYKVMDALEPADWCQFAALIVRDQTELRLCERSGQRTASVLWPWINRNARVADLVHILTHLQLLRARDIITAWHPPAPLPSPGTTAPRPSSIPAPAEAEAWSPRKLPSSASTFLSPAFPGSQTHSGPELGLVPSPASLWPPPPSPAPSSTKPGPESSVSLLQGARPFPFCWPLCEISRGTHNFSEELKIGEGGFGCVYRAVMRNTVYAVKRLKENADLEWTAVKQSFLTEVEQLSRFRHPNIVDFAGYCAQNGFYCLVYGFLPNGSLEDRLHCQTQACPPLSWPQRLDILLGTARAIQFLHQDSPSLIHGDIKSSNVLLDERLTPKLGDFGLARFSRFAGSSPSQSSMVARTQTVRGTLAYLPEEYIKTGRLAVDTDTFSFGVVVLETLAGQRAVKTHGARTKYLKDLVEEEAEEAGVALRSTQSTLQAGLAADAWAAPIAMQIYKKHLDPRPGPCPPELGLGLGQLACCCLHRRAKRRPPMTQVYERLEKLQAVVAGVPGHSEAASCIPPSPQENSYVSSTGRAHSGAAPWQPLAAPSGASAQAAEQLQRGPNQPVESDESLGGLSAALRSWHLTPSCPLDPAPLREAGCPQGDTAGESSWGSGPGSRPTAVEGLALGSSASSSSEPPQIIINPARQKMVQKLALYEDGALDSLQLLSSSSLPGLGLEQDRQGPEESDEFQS
Sequence of BTK (Q06187 2-659): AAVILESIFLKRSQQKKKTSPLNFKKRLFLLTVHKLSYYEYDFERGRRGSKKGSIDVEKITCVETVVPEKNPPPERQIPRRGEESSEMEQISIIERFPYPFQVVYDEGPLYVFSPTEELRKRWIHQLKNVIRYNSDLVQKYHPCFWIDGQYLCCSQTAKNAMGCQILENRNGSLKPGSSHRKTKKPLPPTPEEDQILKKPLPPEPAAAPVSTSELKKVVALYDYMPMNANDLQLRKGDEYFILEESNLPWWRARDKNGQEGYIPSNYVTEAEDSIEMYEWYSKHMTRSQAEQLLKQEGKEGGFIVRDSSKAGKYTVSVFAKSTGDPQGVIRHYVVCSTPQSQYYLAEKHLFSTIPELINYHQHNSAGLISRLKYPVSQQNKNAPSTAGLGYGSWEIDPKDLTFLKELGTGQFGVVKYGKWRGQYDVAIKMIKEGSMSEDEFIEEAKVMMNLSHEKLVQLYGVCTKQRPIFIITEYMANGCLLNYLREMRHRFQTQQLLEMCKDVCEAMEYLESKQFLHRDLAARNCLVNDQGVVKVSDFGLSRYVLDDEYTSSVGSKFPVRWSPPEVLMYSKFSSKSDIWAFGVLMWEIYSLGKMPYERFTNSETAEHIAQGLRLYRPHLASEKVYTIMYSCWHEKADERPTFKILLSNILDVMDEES

C1=C/COCc2cc(ccc2OCCN2CCCC2)Nc2nccc(n2)-c2cccc(c2)COC/1 [pacritinib]
% (IRAK1): 99.5%
IC50 (BTK): 367 nM
IC50 (HCK): 528 nM
